{"source": "paper PMC12498411", "about": "“Antidepressant-like Properties of a Selenium-Containing Pyridinium Salt Explored through In Vitro, In Vivo, and In Silico Approaches” (ACS Chemical Neuroscience, 2025)", "test_system": "male Swiss mice", "assay": "Open field test (OFT) before the TST", "assay_type": "in vivo, mouse", "experimental": "A dosage of 5 mg/kg (intragastric route, i.g., by gavage) was administered to all groups receiving the salts. […] The TST was conducted 30 min following drug administration, with the OFT being performed 4 min prior to the TST.\nFollowing the selection of the most promising salt during screening (Compound 3B), an analysis of the compound’s time-response curve was conducted in the mouse TST. For this purpose, the animals were divided into five groups: (I) control (water; i.g.), (II) the group receiving compound 3B 15 min prior to TST, (III) the group receiving compound 3B 30 min before TST, (IV) the group receiving compound 3B 60 min before TST, and (V) the group receiving compound 3B 120 min before TST. The dosage of salt was standardized at 5 mg/kg (i.g). OFT was conducted 4 min prior to the TST.\nAfter choosing a suitable preadministration time, the dose–response curve of the compound at this fixed time was analyzed. The animals were categorized into […]: I) a control group (administered water; i.g.) and groups II, III, IV and V) receiving compound 3B at doses of 0.5 mg/kg, 1 mg/kg, 2.5 mg/kg, and 5 mg/kg (i.g.), respectively. […] Thirty minutes postadministration, the animals underwent the TST. Four minutes prior to the TST, they underwent the OFT.\nThe aim of this behavioral test is to assess the locomotion and exploration behavior of the animals using an open field apparatus measuring 30 cm × 30 cm × 15 cm, constructed from plywood with a floor divided into nine quadrants, facilitating free movement for the animals. During the OFT, the animals were positioned in the center of the apparatus and subjected to a 5 min testing period, following the protocol outlined in literature. The number of quadrant crossings and rearings was recorded and quantified during testing phase.", "data": [{"smiles": "Cc1ccc(C(=O)C[n+]2ccccc2C[Se]c2ccccc2)cc1", "note": "[Compound 3B, 1-(2-oxo-2-(p-tolyl)ethyl)-2-((phenylselanyl)methyl)pyridin-1-ium bromide]", "values": [{"measurement": "OFT locomotor and exploratory activities, time-response experiment", "setting": "5 mg/kg i.g., 15–120 min", "result": "did not affect the locomotor and exploratory activities"}, {"measurement": "OFT number of crossings, dose–response experiment", "setting": "0.5–5 mg/kg i.g.", "result": "no changes were observed"}, {"measurement": "OFT number of rearings, dose–response experiment", "setting": "3B 0.5–5 mg/kg i.g., fluoxetine 20 mg/kg i.p.", "result": "did not impact on the exploratory behavior profile"}]}]}
